Where a SMILES comes first, the peptide text is derived from it. The star is where a group is joined. Cbz = O=C(OCc1ccccc1)*
Columns and labels:
[1] = tested on: K695sw cells; assay: Pulse-chase labeling and immunoprecipitation of chase media and cell lysates (APP processing); format: cell-based, human
Procedure: We first set out to reproduce the published results of Higaki et al. (1995) Neuron, 14:651-659 on the action of the compound MDL 28170 on APP processing, using human kidney 293 cells stably expressing APP695 with the Swedish FAD mutation (K695sw cells). Our experiments were done using a pulse-chase paradigm: K695sw cells were labeled for 2 hours with 35S-methionine and then chased for 2 hours in the presence of 200 μM MDL 28170. Aliquots of the chase media from treated and untreated cells were subjected to SDS-PAGE.
To address this question, we performed pulse-chase experiments on K695sw cells using different doses of MDL 28170, followed by sequential immunoprecipitation of the same media first with 21F12, a monoclonal antibody raised against amino acids 33-42 of Aβ (described above) which specifically precipitates Aβ peptides ending at position 42, and then with antibody 1282 which precipitates all forms of Aβ and p3 (Haass et al., (1992b) Nature 359:322-325) (FIG. 4A). […] Using MDL 28170 at 200 μM, the experiment was repeated four times and the results were quantitated by phosphorimaging (FIG. 4B).
All transfected cell lines described here carry derivatives of pCMV695, a plasmid carrying APP695 under control of the CMV promoter (Selkoe, (1988) Proc. Natl. Acad. Sci. 85:7341-7345) K695sw are human embryonic kidney 293 cells stably transfected with a construct carrying the AD-linked double (“Swedish”) mutation K595N/M596L (Citron et al. (1992) Nature, 360:672-674); K695717I are 293 cells stably transfected with APP695 carrying the mutation V717I (valine to isoleucine at position 717 in the APP770 numbering system). CHO695 are Chinese hamster ovary cells (CHO) stably transfected with pCMV695 (Oltersdorf (1990) J. Biol. Chem. 265:4432-4437) SKN695 are SK-N-SH human neuroblastoma cells stably transfected with pCMV695.
To analyze the effect of MDL 28170 on the processing of APP, cells were grown to confluence in two 10 cm dishes, pulse-labeled with 600 μCi of [^35S]-methionine in 4 ml of serum-free medium for 2 hours and then chased for 2 hours with 4 ml medium containing 10% fetal bovine serum and the indicated final concentration of MDL 28170 (initially dissolved at 200 mM. in DMSO). Control dishes were treated with DMSO alone.
Conditioned media and cell lysates were analyzed by immunoprecipitation, as described (Haass, et al. (1992) Nature 359:322-325). Polyclonal antibody R1736 to residues 595-611 of APP695 was used to precipitate α-APPs (Haass, (1994) J. Biol. Chem. 269:17741-17748). This antibody recognizes an epitope that is specific for the free COOH-terminus of α-cleaved APPs. Polyclonal antibody R1282 was generated to synthetic Aβ1-40 (Haass, et al. (1992) Nature 359:322-325). […]

[2] = tested on: total Aβ and total p3; details: literature; cited from earlier work

Which “Aβ(42) (antibody 21F12)” value ([1]; 1 μM PDBu, 2 h pulse 2 h chase) does the source give for `CCCC(=O)O[C@@H]1[C@@H](C)[C@@]2(O)[C@@H](C=C(CO)C[C@]3(O)C(=O)C(C)=C[C@@H]23)[C@@H]2C(C)(C)[C@]12OC(=O)CCC` [PDBu] here?
The value was “decreases”.

What about the “p3(42) (antibody 21F12)” value ([1]; 1 μM PDBu, 2 h pulse 2 h chase) of the same compound?
The value was “increase”.

And the “total Aβ (subsequent R1282)” value ([1]; 1 μM PDBu, 2 h pulse 2 h chase)?
Its value is “decreases”.

What about the “total Aβ” value [2] of the same compound?
Its value is “decrease”.

What about the “total p3” value [2] of the same compound?
Its value is “increase”.

Which “β-secretase activity (β-cleaved APPs, antibody 192sw immunoprecipitation)” value ([1]; 200 μM during 2 h chase) does the source give for `CC(C)[C@H](NC(=O)OCc1ccccc1)C(=O)N[C@H](C=O)Cc1ccccc1` [MDL 28170] (Cbz-Val-Phe-aldehyde) here?
Its value is “does not significantly inhibit”.
